Reference: patent US6642274B1, “Methods and compositions for preventing and treating prostate disorders” (priority 1999, dated 2003)

Assays:
[1] = system: cancer cell cultures; conditions: cited from earlier work
[2] = rapid hydrolysis by serum and tissue esterases into alpha-tocopherol; cited from earlier work
[3] = system: BPH; conditions: cited from earlier work
[4] = system: 5alpha-reductase; conditions: after daily dosing with 5 milligrams; cited from earlier work
[5] = system: cancer cell cultures; experiment: Cytostatic or cytotoxic effects on cancer cell cultures; format: cell-based; conditions: after hydrolysis of alpha-tocopherol succinate into alpha-tocopherol
Text: (§1) Szarka reviews the strategy of chemoprevention as a possible method of blocking the development of cancers in humans (C F Szarka et al “Chemoprevention of cancer” Curr Probl Cancer 1994 January-February; 18(1):6-79).

[6] = in vivo
Text: as §1

Row | Structure (SMILES) | concentration necessary to demonstrate cytostatic or cytotoxic effects [1] | levels available systemically after oral administration [2] | side effects in men ([3]; oral administration) | increase in peak urinary flow rates ([3]; two large clinical studies, finasteride treatment) [mls/second] | reduction in serum dihydrotestosterone levels [4] [%] | reduction in potency relative to alpha-tocopherol succinate [5] [fold] | factor by which minimal target tissue concentration exceeds the maximum levels possible in oral administration [6]
1 | Cc1c(C)c2c(c(C)c1OC(=O)CCC(=O)O)CC[C@@](C)(CCC[C@H](C)CCC[C@H](C)CCCC(C)C)O2 [alpha-tocopherol succinate] | 10 µM | undetectable levels | – | – | – | – | –
2 | CC(C)(C)NC(=O)[C@H]1CC[C@H]2[C@@H]3CC[C@H]4NC(=O)C=C[C@]4(C)[C@H]3CC[C@]12C [finasteride] | – | – | erectile dysfunction, decreased volume of ejaculate and loss of libido | ~1.6 | 70 | – | –
3 | Cc1c(C)c2c(c(C)c1O)CC[C@@](C)(CCC[C@H](C)CCC[C@H](C)CCCC(C)C)O2 [alpha-tocopherol] | 0.5 millimolar | – | – | – | – | 50 | 7-10 fold
4 | O=C1O[C@H]([C@@H](O)CO)C(O)=C1O [ascorbic acid] | 1-2 millimolar | – | – | – | – | – | 10-20 fold
